Values quoted from earlier work in publication PMC12141164, “Phase-1 study of vamotinib (PF-114), a 3rd generation BCR::ABL1 tyrosine kinase-inhibitor, in chronic myeloid leukaemia” (Annals of Hematology, 2025).

How the values were obtained:
[1] = tested on: BaF3 cells expressing BCR::ABL1^T315I; design: method as in PMID 25394714; details: read-out: IC50 of cytotoxicity; cited from earlier work
PDGFRa = details: kinase inhibition profiles; cited from earlier work

For Cc1ccc(C(=O)Nc2ccc(CN3CCN(C)CC3)c(C(F)(F)F)c2)cc1C#Cc1nnc2ccccn12 [vamotinib], the IC50 [1] is listed as 75 nM and the “inhibition of PDGFRa” value (PDGFRa) is listed as “potently inhibited”.
